Laboratory results as given in EPA's ToxRefDB 2.

Assays:
[1] = tested on: rat; conditions: Combined chronic toxicity/carcinogenicity, fischer, Oral, Feed, dose end: 2 year
[2] = tested on: mouse; conditions: Prenatal developmental toxicity study, cd1, Oral, Gavage/Intubation, dose end: 17 GD
[3] = tested on: mouse; conditions: Prenatal developmental toxicity study, cd1, Oral, Gavage/Intubation, dose end: 17 GD; remark: listed apart in the source
[4] = tested on: mouse; conditions: Carcinogenicity, cd1, Oral, Feed, dose end: 78 week
[5] = tested on: rat; conditions: Multigenerational reproductive toxicity study, wistar, Oral, Feed, dose end: 2 generation
[6] = tested on: rat; conditions: Prenatal developmental toxicity study, other, Oral, Gavage/Intubation, dose end: 19 GD
[7] = tested on: rat; conditions: Multigenerational reproductive toxicity study, sprague dawley, Oral, Gavage/Intubation, dose end: 2 generation
[8] = group: cholinesterase, cholinesterase / cholinesterase / cholinesterase / erythrocyte cholinesterase (che)
[9] = group: systemic, systemic / pathology microscopic / stomach / mineralization + systemic / in life observation / body weight / body weight + systemic / in …
[10] = group: developmental, systemic / in life observation / body weight / fetal weight
[11] = group: maternal, reproductive / reproductive performance / postimplantation loss / postimplantation loss + systemic / in life observation / body weight / …
[12] = group: developmental, developmental / developmental malformation / bone / supernumerary + systemic / in life observation / body weight / fetal weight
[13] = group: maternal, systemic / in life observation / body weight / body weight + systemic / in life observation / body weight / body weight gain + systemic / …
[14] = group: cholinesterase, cholinesterase / cholinesterase / cholinesterase / brain cholinesterase (che) + cholinesterase / cholinesterase / cholinesterase / …
[15] = group: systemic, systemic / in life observation / body weight / body weight + systemic / in life observation / body weight / body weight gain + systemic / in…
[16] = group: offspring, developmental / developmental landmark / preputial separation / preputial separation + systemic / in life observation / body weight / …
[17] = group: parental, systemic / pathology gross / eye / opacity + systemic / pathology microscopic / eye / inflammation + systemic / pathology microscopic / eye…
[18] = group: reproductive, reproductive / reproductive performance / estrous cycle / abnormal + reproductive / reproductive performance / estrous cycle / corpora lutea
[19] = group: developmental, developmental / developmental malformation / bone / [other] + developmental / developmental malformation / bone / bipartite ossification + …
[20] = group: maternal, systemic / in life observation / body weight / body weight gain + systemic / in life observation / food consumption / food efficiency
[21] = group: offspring, developmental / offspring survival late / viability index / viability index + systemic / in life observation / body weight / offspring (pup…
[22] = group: parental, systemic / pathology microscopic / liver / hypertrophy + systemic / pathology microscopic / kidney / regeneration + systemic / organ weight…
[23] = group: parental, systemic / pathology microscopic / liver / hypertrophy + systemic / pathology microscopic / kidney / regeneration + systemic / pathology …

SMILES: CCOC(=O)CC(SP(=O)(OC)OC)C(=O)OCC (stereo not given) [Malaoxon]
- LEL [1, 8]: 1 mg/kg/day
- LOAEL [1, 8]: 1 mg/kg/day
- NEL [1, 8]: < 1 mg/kg/day
- NOAEL [1, 8]: < 1 mg/kg/day
- LOAEL ([1]; group: systemic, systemic / pathology microscopic / stomach / mineralization): 57 mg/kg/day
- NEL [1, 9]: 1 mg/kg/day
- NOAEL [1, 9]: 1 mg/kg/day
- LEL ([1]; group: systemic, systemic / pathology microscopic / stomach / mineralization + systemic / in life observation / food consumption / food consumption): 57 mg/kg/day

SMILES: C=C(C)C(N)=O [Methacrylamide]
- LEL [2, 10]: 120 mg/kg/day
- LOAEL [2, 10]: > 180 mg/kg/day
- NEL [2, 10]: 60 mg/kg/day
- NOAEL [2, 10]: ≥ 180 mg/kg/day
- LOAEL [2, 11]: > 180 mg/kg/day
- NEL [2, 11]: 60 mg/kg/day
- NOAEL [2, 11]: ≥ 180 mg/kg/day
- LEL ([2]; group: maternal, systemic / organ weight / liver / relative to body weight): 120 mg/kg/day

SMILES: C=CC(=O)NCNC(=O)C=C [N,N'-Methylenebisacrylamide]
- LEL ([3]; group: developmental, developmental / developmental malformation / bone / supernumerary): 10 mg/kg/day
- LOAEL [3, 12]: > 30 mg/kg/day
- NEL [3, 12]: 3 mg/kg/day
- NOAEL [3, 12]: ≥ 30 mg/kg/day
- LOAEL [3, 13]: > 30 mg/kg/day
- NEL [3, 13]: 3 mg/kg/day
- NOAEL [3, 13]: ≥ 30 mg/kg/day
- LEL ([3]; group: maternal, systemic / in life observation / body weight / body weight + systemic / organ weight / liver / relative to body weight + systemic / organ …): 10 mg/kg/day

SMILES: CCN(CC)c1nc(C)cc(OP(=S)(OC)OC)n1 [Pirimiphos-methyl]
- LEL [4, 14]: 8.3 mg/kg/day
- LOAEL [4, 14]: 8.3 mg/kg/day
- NEL [4, 14]: < 8.3 mg/kg/day
- NOAEL [4, 14]: < 8.3 mg/kg/day
- LEL [4, 15]: 33 mg/kg/day
- LOAEL [4, 15]: 33 mg/kg/day
- NEL [4, 15]: 8.3 mg/kg/day
- NOAEL [4, 15]: 8.3 mg/kg/day

SMILES: CS(=O)(=O)c1ccc(C(=O)C2C(=O)CCCC2=O)c(Cl)c1COCC(F)(F)F [Tembotrione]
- LEL [5, 16]: 1.3 mg/kg/day
- LOAEL [5, 16]: 1.3 mg/kg/day
- NEL [5, 16]: < 1.3 mg/kg/day
- NOAEL [5, 16]: < 1.3 mg/kg/day
- LEL [5, 17]: 1.3 mg/kg/day
- LOAEL [5, 17]: 1.3 mg/kg/day
- NEL [5, 17]: < 1.3 mg/kg/day
- NOAEL [5, 17]: < 1.3 mg/kg/day
- LEL [5, 18]: 123 mg/kg/day
- LOAEL [5, 18]: 123 mg/kg/day
- NEL [5, 18]: 16.2 mg/kg/day
- NOAEL [5, 18]: 16.2 mg/kg/day

SMILES: CCN(CC)C(=O)SCc1ccc(Cl)cc1 [Thiobencarb]
- LEL [6, 19]: 150 mg/kg/day
- LOAEL [6, 19]: 150 mg/kg/day
- NEL [6, 19]: 25 mg/kg/day
- NOAEL [6, 19]: 25 mg/kg/day
- LEL [6, 20]: 150 mg/kg/day
- LOAEL [6, 20]: 150 mg/kg/day
- NEL [6, 20]: 25 mg/kg/day
- NOAEL [6, 20]: 25 mg/kg/day
- LEL [7, 21]: 100 mg/kg/day
- LOAEL [7, 21]: > 100 mg/kg/day
- NEL [7, 21]: 20 mg/kg/day
- NOAEL [7, 21]: ≥ 100 mg/kg/day
- LEL [7, 22]: 2 mg/kg/day
- NEL [7, 22]: < 2 mg/kg/day
- LOAEL [7, 23]: 2 mg/kg/day
- NOAEL [7, 23]: < 2 mg/kg/day
